The subject of series [1] is HES3 NKX2.1-GFP hESC line with i12b-RFP. The series can be described thus: Flow cytometry of NKX2.1-GFP and i12b-RFP double positive cells. In kind it is cell-based, human. The following applies: B27+5F cultures treated with DAPT. The source says: The intergenic DLX½i12b (422) enhancer driving the mCherry RFP reporter gene (i12b-RFP) was delivered into the HES3 NKX2.1-GFP hESC line using lentivirus, and two stable cell lines were generated (#5 and #10) as confirmed by genomic DNA PCR for mCherry. (FIG. 22, F).
The modified lines were differentiated using the B27±5F method, and i12b-RFP expression was detected after three weeks of differentiation, along with NKX2.1. (FIG. 22, G). i12b-RFP+ cells in EBs co-expressed GABAergic neuron marker DLX2 and neuronal marker TUJ1. (FIGS. 22, H and I).
Flow cytometry analysis confirmed that many cells derived with the B27+5F method co-expressed both NKX2.1-GFP and i12b-RFP (FIG. 22, J).

The subject of the next series is SCID mouse cortex. The series can be described thus: Tumor incidence after injection of hESC-derived NKX2.1-GFP+ cells into newborn SCID mouse cortex. In kind it is in vivo. The procedure:
Excess medium was removed from sorted cell pellets to create concentrated cell suspensions of 1000 cells/nl. Cells were loaded into a beveled glass micropipette (Wiretrol 5 ul, Drummond Scientific Company) mounted on a stereotactic hydraulic injector. P2 CB.17-SCID pups (Charles River) were anesthetized through hypothermia and positioned in a clay head mold on the injector platform. 10-100,000 cells per injection site were delivered transcranially into the right cerebral cortex using the following coordinates: 0.9 mm from the midline (sagittal sinus), and 2.6 mm from lambda. The depth of injection was 0.45 mm from the skin surface. All transplantation experiments adhered to approved UCSF Institutional Animal Care and Use Committee protocols.
Initially, day 35 monolayer cultures were sorted for NKX2.1-GFP+, without PSANCAM selection, and injected into newborn SCID mouse cortex. However, within 4 months, injected mouse brains (12/12 mice) contained tumor-like overgrowths at the injection site and/or at the pial surface near the injection tract (data not shown). These were not pluripotent cell-derived teratomas; OCT4+ cells or polarized neuroepithelial rosettes were not found. […] But, focal growths (˜1 focus/2500 plated cells, n=3) were occasionally detected in extended co-cultures, consistent with tumor formation in vivo. […]

Molecules are shown by their SMILES.

Take `C[C@H](NC(=O)Cc1cc(F)cc(F)c1)C(=O)N[C@H](C(=O)OC(C)(C)C)c1ccccc1` [DAPT]: the “double positive (NKX2.1-GFP and i12b-RFP) population of MGE derived interneurons” value in series [1] was “marked increase”. Moreover, the tumor incidence with SCID mouse cortex (brief addition of DAPT prior to injection, low-density monolayer culture, 3/9 mice) turned out to be 33%. For the same compound, the “in vivo tumor incidence” value in the series on SCID mouse cortex (day 35 cultures pretreated with DAPT and FACS-sorted for both NKX2.1-GFP+ and PSA-NCAM+ cells) is on record as 0/6.
